Measurements: patent US5036157A, “Aryl derivatives” (Burroughs Wellcome Co., priority 1987, dated 1991)

What was measured:
Cyclooxygenase (CO) = target: T1, Cyclooxygenase (CO) (Homo sapiens, UniProt P23219); assay: In vitro inhibition of Cyclooxygenase (CO); leukocyte homogenate with arachidonic acid, radioimmunoassay for thromboxane; assay type: biochemical; conditions: homogenised leukocytes from aspirin-free volunteers, 5 μM arachidonic acid, 37°, 5 minutes; thomboxane B4 (CO product)
T1 construct: The leukocytes were homogenised and 5 μM arachidonic acid added; endogenous in cells; host or cells: homogenate of leukocytes from blood of normal aspirin-free volunteers
T1 sequence (P23219 24-599): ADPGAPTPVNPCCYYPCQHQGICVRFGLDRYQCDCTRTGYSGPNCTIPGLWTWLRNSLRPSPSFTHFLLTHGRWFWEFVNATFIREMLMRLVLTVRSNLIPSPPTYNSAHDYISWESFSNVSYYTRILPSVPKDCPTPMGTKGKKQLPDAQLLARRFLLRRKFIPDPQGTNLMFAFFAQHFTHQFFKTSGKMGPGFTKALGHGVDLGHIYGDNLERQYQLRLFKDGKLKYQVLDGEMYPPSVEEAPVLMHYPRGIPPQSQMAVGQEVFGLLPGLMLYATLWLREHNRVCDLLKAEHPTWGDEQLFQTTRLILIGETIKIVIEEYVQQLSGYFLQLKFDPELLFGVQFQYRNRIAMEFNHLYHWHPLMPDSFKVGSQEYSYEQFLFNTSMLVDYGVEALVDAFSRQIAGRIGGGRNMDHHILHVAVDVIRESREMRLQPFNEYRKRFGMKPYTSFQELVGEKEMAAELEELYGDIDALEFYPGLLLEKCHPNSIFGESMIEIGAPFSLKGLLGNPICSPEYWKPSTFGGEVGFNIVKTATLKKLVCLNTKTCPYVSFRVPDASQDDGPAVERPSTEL
Procedure: (§1) In vitro inhibition of 5-lipoxygenase (LO) and Cyclooxygenase (CO)
(§2) Blood from normal aspirin-free volunteers was centrifuged to separate leukocytes from red cells and platelets. The leukocytes were homogenised and 5 μM arachidonic acid added, followed by incubation at 37° for 5 minutes. The reaction was stopped by boiling. Radioimmunassay was conducted for leukotriene B4 (an LO product) and thomboxane B4 (a CO product). Results were calculated as IC50 μM activity against each enzyme and as listed below.

5-lipoxygenase (LO) = target: T2, 5-lipoxygenase (LO) (Homo sapiens, UniProt P09917); assay: In vitro inhibition of 5-lipoxygenase (LO); leukocyte homogenate with arachidonic acid, radioimmunoassay for leukotriene B4; assay type: biochemical; conditions: homogenised leukocytes from aspirin-free volunteers, 5 μM arachidonic acid, 37°, 5 minutes; leukotriene B4 (LO product)
T2 construct: The leukocytes were homogenised and 5 μM arachidonic acid added; endogenous in cells; host or cells: homogenate of leukocytes from blood of normal aspirin-free volunteers
T2 sequence (P09917 1-674): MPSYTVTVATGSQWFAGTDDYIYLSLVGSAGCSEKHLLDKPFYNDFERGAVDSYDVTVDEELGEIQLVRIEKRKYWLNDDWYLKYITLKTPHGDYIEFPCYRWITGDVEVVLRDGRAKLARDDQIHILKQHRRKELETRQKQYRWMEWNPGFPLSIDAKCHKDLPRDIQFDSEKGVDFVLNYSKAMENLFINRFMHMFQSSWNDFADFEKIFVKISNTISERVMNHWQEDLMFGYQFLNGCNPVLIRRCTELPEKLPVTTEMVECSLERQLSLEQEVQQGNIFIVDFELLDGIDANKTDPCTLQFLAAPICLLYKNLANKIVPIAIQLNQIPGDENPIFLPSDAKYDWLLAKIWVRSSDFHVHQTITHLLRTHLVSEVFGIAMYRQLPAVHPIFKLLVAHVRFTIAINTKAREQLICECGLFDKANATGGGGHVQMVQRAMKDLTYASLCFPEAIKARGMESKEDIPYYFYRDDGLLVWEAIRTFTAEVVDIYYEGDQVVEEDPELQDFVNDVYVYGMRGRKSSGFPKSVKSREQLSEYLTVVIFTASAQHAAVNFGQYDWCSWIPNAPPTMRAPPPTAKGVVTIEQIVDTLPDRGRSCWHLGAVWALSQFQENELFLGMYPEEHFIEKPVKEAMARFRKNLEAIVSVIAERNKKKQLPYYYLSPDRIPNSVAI
Procedure: as §1, §2

IC50 (Cyclooxygenase (CO)): 3 µM
IC50 (5-lipoxygenase (LO)): < 0.1 µM
SMILES: CN(O)C(=O)C=Cc1cccc(Oc2ccccc2)c1 [Example 1, 3-Phenoxy-N-methylcinnamohydroxamic Acid]
